Data set [1] can be described thus: Observation of crystal formation in the patch. Format: physicochemical. As for the experimental part: (§1) 10 wt % melatonin was placed in a 70 mL vial and dissolved in methanol, and then 90 wt % adhesive was added thereto, followed by mixing in a roll mixer for 2 hours. Next, the mixture was allowed to stand for 30 minutes to remove bubbles, after which a silicone-treated polyethylene terephthalate release film was placed on a coating machine, and the mixed adhesive was dried, and then coated onto the release film to 70 μm. Thereafter, the resultant was dried in an oven at 80° C. for 3 minutes, and then a supporting layer film was laminated thereon and compressed using a roller press. The resultant was cut of a patch cutter, thereby manufacturing a patch having an area of 10 cm^2. Next, the physical properties of the patch and crystal formation were observed, and a percutaneous absorption test was performed.
as §1, with “Melatonin and a solubilizing agent were placed” for “10 wt % melatonin was placed”, “then an” for “then 90 wt %”, “coated on” for “coated onto”, “a support” for “a supporting”, “cut by using” for “cut of”, “were observed.” for “were observed, and a percutaneous absorption test was performed.”
A crystallization inhibitor was placed and dissolved in a 70 mL vial, and then a solubilizing agent, an antioxidant and melatonin were added and dissolved, after which an adhesive was added thereto, followed by mixing in a roll mixer for 2 hours. Next, the mixture was allowed to stand for 30 minutes to remove bubbles, after which a silicone-treated polyethylene terephthalate release film was placed on a coating machine, and the mixed adhesive was dried, and then coated on the release film to 70 μm. Thereafter, the resultant was dried in an oven at 80° C. for 3 minutes, and then a support layer film was laminated thereon and compressed using a roller press. The resultant was cut by using a patch cutter, thereby manufacturing a patch having an area of 10 cm^2. Next, the physical properties of the patch and crystal formation were observed.
A crystallization inhibitor was placed and dissolved in a 70 mL vial, and then a solubilizing agent, an antioxidant, a percutaneous absorption enhancer and melatonin were added thereto and dissolved, after which an adhesive was added thereto, followed by mixing in a roll mixer for 2 hours. […]

The conditions of data set [2]: melatonin administered orally; cited from earlier work.

In the case of `CN1CCCC1=O` [N-methyl pyrrolidone], in data set [1], the “Crystal formation (after 1 month) (microscopic observation)” value is “fine crystal formation” and the “crystal formation in visual observation” value was “no crystal formation”.

Take `CCOCCOCCO` [Transcutol CG, ethoxydiglycol]: in data set [1], the “Crystal formation (after 1 month) (microscopic observation)” value is “fine crystal formation” and the “crystal formation in visual observation” value is listed as “no crystal formation”.

As usually defined, the bioavailability is the share of a dose that reaches the circulation, judged against a reference dose that is usually intravenous. In the case of `COc1ccc2[nH]cc(CCNC(C)=O)c2c1` [melatonin], in data set [2], the bioavailability is given as 20% and the half-life result is recorded as “about 1 hour”.

These data come from patent US20240293336A1, “PERCUTANEOUS ABSORPTION FORMULATION FOR TREATING SLEEP DISORDERS” (SINSIN PHARM CO., LTD., priority 2016, published 2024).
